Source: patent publication US20070185167A1, “SODIUM SALTS OF 5-[4-[2-(N-METHYL-N-(2-PYRIDYL)AMINO)ETHOXY]BENZYL]THIAZOLIDINE-2,4-DIONE” (SmithKline Beecham p.l.c., priority 2000, published 2007)

Assays:
[1] = 25° C and 75% relative humidity, approximately constant weight
Source text: For the avoidance of doubt when used herein the terms “non-hygroscopic”, “slightly hygroscopic”, “moderately hygroscopic” and “very hygroscopic” are to have the meanings defined by the above mentioned criteria.

[2] = especially under humid conditions

Question: For `CN(CCOc1ccc(CC2SC(=O)NC2=O)cc1)c1ccccn1.[Na]` (centres unmarked) [Sodium Salt, 5-[4-[2-(N-Methyl-N-(2-pyridyl)amino)ethoxy]benzyl]thiazolidine-2,4-dione, Sodium Salt], which “hygroscopicity classification (% weight gain)” value [1] is on record?
Answer: The value was “non-hygroscopic (<2%)”.

Question: What about the solid state stability [2] of the same compound?
Answer: Its solid state stability is “good solid state stability”.
